# System: 4 PI3K isoforms (Human recombinant GST-PI3K)
# Test: PI3K scintillation proximity assay, best IC50 obtained with the four isoforms (alpha, beta, delta, gamma)
# Type: biochemical
# Conditions: best IC50 obtained with the four isoforms of PI3K; read-out: Best potency measured on the 4 PI3K isoforms
row,SMILES,IC50 [nM]
1,"CC(=O)N1CCC(Cn2nc(C(=O)N3CCOCC3)c3c2-c2ccccc2S(=O)(=O)C3)CC1 [Example 191, 1-[(1-Acetylpiperidin-4-yl)methyl]-3-(morpholin-4-ylcarbonyl)-1,4-dihydrothiochromeno[4,3-c]pyrazole 5,5-dioxide]",2820
2,"O=C(c1nn(-c2ccccc2)c2c1CS(=O)(=O)c1sccc1-2)N1CCOCC1 [Example 192, 3-(Morpholin-4-ylcarbonyl)-1-phenyl-1,4-dihydrothieno[3′,2′:5,6]thiopyrano[4,3-c]pyrazole 5,5-dioxide]",1700
3,"Cn1cc(-n2nc(C(=O)N3CCOCC3)c3c2-c2ccsc2S(=O)(=O)C3)ccc1=O [Example 195, 1-Methyl-5-[3-(morpholin-4-ylcarbonyl)-5,5-dioxidothieno[3′,2′:5,6]thiopyrano[4,3-c]pyrazole-1 (4H)-yl]pyridin-2 (1H)-one]",2690
4,"Cc1noc(-c2cccc(-n3nc(C(=O)N4CCOCC4)c4c3-c3ccccc3S(=O)(=O)C4)c2)n1 [Example 196, 1-[3-(3-Methyl-1,2,4-oxadiazol-5-yl)phenyl]-3-(morpholin-4-ylcarbonyl)-1,4-dihydrothiochromeno[4,3-c]pyrazole 5,5-dioxide]",2690
5,"O=C(c1nn(-c2cccc(-c3cccnc3)c2)c2c1CS(=O)(=O)c1ccccc1-2)N1CCOCC1 [Example 198, 3-(Morpholin-4-ylcarbonyl)-1-(3-pyridin-3-ylphenyl)-1,4-dihydrothiochromeno[4,3-c]pyrazole 5,5-dioxide]",280
6,"O=C(c1nn(C2CCCCC2)c2c1CS(=O)(=O)c1sccc1-2)N1CCOCC1 [Example 201, 1-Cyclohexyl-3-(morpholin-4-ylcarbonyl)-1,4-dihydrothieno[3′,2′:5,6]thiopyrano[4,3-c]pyrazole 5,5-dioxide]",302
7,"Cc1cccc2c1S(=O)(=O)Cc1c(C(=O)N3CCOCC3)nn(-c3ccccc3)c1-2 [Example 202, 6-Methyl-3-(morpholin-4-ylcarbonyl)-1-phenyl-1,4-dihydrothiochromeno[4,3-c]pyrazole 5,5-dioxide]",1740
8,"O=C(c1nn(-c2ccc3[nH]ncc3c2)c2c1CS(=O)(=O)c1ccccc1-2)N1CCOCC1 [Example 203, 1-(1H-Indazol-5-yl)-3-(morpholin-4-ylcarbonyl)-1,4-dihydrothiochromeno[4,3-c]pyrazole 5,5-dioxide]",1640
9,"CN(C)S(=O)(=O)c1cccc(-n2nc(C(=O)N3CCOCC3)c3c2-c2ccccc2S(=O)(=O)C3)c1 [Example 207, N,N-Dimethvl-3-[3-(morpholin-4-ylcarbonyl)-5,5-dioxidothiochromeno[4,3-c]pyrazol-1 (4H)-yl]benzenesulfonamide]",641
10,"O=C(Nc1cccc(-n2nc(C(=O)N3CCOCC3)c3c2-c2ccccc2S(=O)(=O)C3)c1)N1CCOCC1 [Example 209, N-{3-[3-(Morpholin-4-ylcarbonyl)-5,5-dioxidothiochromeno[4,3-c]pyrazol-1 (4H)-yl]phenyl)morpholine-4-carboxamide]",3590
11,O=C(c1nn(-c2ccc(CN3CCOCC3)cc2)c2c1CS(=O)(=O)c1ncccc1-2)N1CCOCC1 [Example 211],400
12,"COCc1noc(-c2cccc(-n3nc(C(=O)N4CCOCC4)c4c3-c3ccccc3S(=O)(=O)C4)c2)n1 [Example 214, 1-{3-[3-(Methoxymethyl)-1,2,4-oxadiazol-5-yl]phenyl)-3-(morpholin-4-ylcarbonyl)-1,4-dihydrothiochromeno[4,3-c]pyrazole 5,5-dioxide]",4190
13,"O=C(c1nn(C2CCC(CN3CCOCC3)CC2)c2c1CS(=O)(=O)c1ccccc1-2)N1CCOCC1 (stereo not drawn) [Example 215, 3-(Morpholin-4-ylcarbonyl)-1-[4-(morpholin-4-ylmethyl)cyclohexyl]-1,4-dihydrothiochromeno[4,3-c]pyrazole 5,5-dioxide]",912
14,"O=C(c1nn(-c2ccc(CN3CCOCC3)nc2)c2c1CS(=O)(=O)c1ccccc1-2)N1CCOCC1 [Example 216, 3-(Morpholin-4-ylcarbonyl)-1-[6-(morpholin-4-ylmethyl)pyridin-3-yl]-1,4-dihydrothiochromeno[4,3-c]pyrazole 5,5-dioxide]",614
15,"O=C(c1nn(-c2ccc(CN3CCC(F)CC3)nc2)c2c1CS(=O)(=O)c1ccccc1-2)N1CCOCC1 [Example 217, 1-{6-[(4-Fluoropiperidin-1-yl)methyl]pyridin-3-yl}-3-(morpholin-4-ylcarbonyl)-1,4-dihydrothiochromeno[4,3-c]pyrazole 5,5-dioxide]",1200
16,"O=C(c1nn(C2CCCN(c3ccccc3)C2)c2c1CS(=O)(=O)c1ccccc1-2)N1CCOCC1 (stereo not drawn) [Example 218, 3-(Morpholin-4-ylcarbonyl)-1-(1-phenylpiperidin-3-yl)-1,4-dihydrothiochromeno[4,3-c]pyrazole 5,5-dioxide]",468
17,"O=C(c1nn(C2CCCN(CCC(F)(F)F)C2)c2c1CS(=O)(=O)c1ccccc1-2)N1CCOCC1 (stereo not drawn) [Example 222, 3-(Morpholin-4-ylcarbonyl)-1-[1-(3,3,3-trifluoropropyl)piperidin-3-yl]-1,4-dihydrothiochromeno[4,3-c]pyrazole 5,5-dioxide]",149
18,"O=C(c1nn(C2CCCN(CCC3CCOCC3)C2)c2c1CS(=O)(=O)c1ccccc1-2)N1CCOCC1 (stereo not drawn) [Example 224, 3-(Morpholin-4-ylcarbonyl)-1-{1-[2-(tetrahydro-2H-pyran-4-yl)ethyl]piperidin-3-yl)-1,4-dihydrothiochromeno[4,3-c]pyrazole 5,5-dioxide]",54
19,"CCc1noc(Cn2nc(C(=O)N3CCOCC3)c3c2-c2ccccc2S(=O)(=O)C3)n1 [Example 230, 1-[(3-Ethyl-1,2,4-oxadiazol-5-yl)methyl]-3-(morpholin-4-ylcarbonyl)-1,4-dihydrothiochromeno[4,3-c]pyrazole 5,5-dioxide]",1920
20,"COC(=O)c1ccc(Cn2nc(C(=O)N3CCOCC3)c3c2-c2ccccc2S(=O)(=O)C3)o1 [Example 231, Methyl 5-{[3-(morpholin-4-ylcarbonyl)-5,5-dioxidothiochromeno[4,3-c]pyrazol-1(4H)-yl]methyl}-2-furoate]",431

# Further compounds by falling IC50, results first:
row,IC50 [nM],SMILES
1,4860,"Cc1nc(-c2cccc(-n3nc(C(=O)N4CCOCC4)c4c3-c3ccccc3S(=O)(=O)C4)c2)n[nH]1 [Example 200, 1-[3-(5-Methyl-1H-1,2,4-triazol-3-yl)phenyl]-3-(morpholin-4-ylcarbonyl)-1,4-dihydrothiochromeno[4,3-c]pyrazole 5,5-dioxide]"
2,3510,"CNc1cccc2c1S(=O)(=O)Cc1c(C(=O)N3CCOCC3)nn(-c3ccccc3)c1-2 [Example 212, N-Methyl-3-(morpholin-4-ylcarbonyl)-1-phenyl-1,4-dihydrothiochromeno[4,3-c]pyrazol-6-amine 5,5-dioxide]"
3,2650,"CN1CCC(Cn2nc(C(=O)N3CCOCC3)c3c2-c2ccccc2S(=O)(=O)C3)CC1 [Example 208, 1-[(1-Methylpiperidin-4-yl)methyl]-3-(morpholin-4-ylcarbonyl)-1,4-dihydrothiochromeno[4,3-c]pyrazole 5,5-dioxide]"
4,2590,"CCc1nc(-c2cccc(-n3nc(C(=O)N4CCOCC4)c4c3-c3ccccc3S(=O)(=O)C4)c2)no1 [Example 199, 1-[3-(5-Ethyl-1,2,4-oxadiazol-3-yl)phenyl]-3-(morpholin-4-ylcarbonyl)-1,4-dihydrothiochromeno[4,3-c]pyrazole 5,5-dioxide]"
5,2080,"O=C(c1nn(-c2ccc3nn(Cc4ccccc4)cc3c2)c2c1CS(=O)(=O)c1ccccc1-2)N1CCOCC1 [Example 204, 1-(2-Benzyl-2H-indazol-5-yl)-3-(morpholin-4-ylcarbonyl)-1,4-dihydrothiochromeno[4,3-c]pyrazole 5,5-dioxide]"
6,1170,"COc1cccc(Cn2nc(C(=O)N3CCOCC3)c3c2-c2ccccc2S(=O)(=O)C3)c1 [Example 232, 1-(3-Methoxybenzyl)-3-(morpholin-4-ylcarbonyl)-1,4-dihydrothiochromeno[4,3-c]pyrazole 5,5-dioxide]"
7,920,"CS(=O)(=O)C1CCN(Cc2ccc(-n3nc(C(=O)N4CCOCC4)c4c3-c3ccccc3S(=O)(=O)C4)cc2)C1 (stereo not drawn) [Example 229, 1-(4-{[3-(Methylsulfonyl)pyrrolidin-1-yl]methyl}phenyl)-3-(morpholin-4-ylcarbonyl)-1,4-dihydrothiochromeno[4,3-c]pyrazole 5,5-dioxide]"
8,826,"O=C(c1nn(-c2cccc(-c3ccoc3)c2)c2c1CS(=O)(=O)c1ccccc1-2)N1CCOCC1 [Example 197, 1-[3-(3-Furyl)phenyl]-3-(morpholin-4-ylcarbonyl)-1,4-dihydrothiochromeno[4,3-c]pyrazole 5,5-dioxide]"
9,711,"O=C(c1nn(C2CCCN(CCc3ccccc3)C2)c2c1CS(=O)(=O)c1ccccc1-2)N1CCOCC1 (stereo not drawn) [Example 219, 3-(Morpholin-4-ylcarbonyl)-1-[1-(2-phenylethyl)piperidin-3-yl]-1,4-dihydrothiochromeno[4,3-c]pyrazole 5,5-dioxide]"
10,635,"COCCOCCN1CCCC(n2nc(C(=O)N3CCOCC3)c3c2-c2ccccc2S(=O)(=O)C3)C1 (stereo not drawn) [Example 225, 1-{1-[2-(2-Methoxyethoxy)ethyl]piperidin-3-yl}-3-(morpholin-4-ylcarbonyl)-1,4-dihydrothiochromeno[4,3-c]pyrazole 5,5-dioxide]"
11,587,"CC(C)(C)CCN1CCCC(n2nc(C(=O)N3CCOCC3)c3c2-c2ccccc2S(=O)(=O)C3)C1 (stereo not drawn) [Example 220, 1-[1-(3,3-Dimethylbutyl)piperidin-3-yl]-3-(morpholin-4-ylcarbonyl)-1,4-dihydrothiochromeno[4,3-c]pyrazole 5,5-dioxide]"
12,362,"O=C(c1nn(C2CCCC(C(=O)N3CCCCC3)C2)c2c1CS(=O)(=O)c1ccccc1-2)N1CCOCC1 (stereo not drawn) [Example 193, 3-(Morpholin-4-ylcarbonyl)-1-[3-(piperidin-1-ylcarbonyl)cyclohexyl]-1,4-dihydrothiochromeno[4,3-c]pyrazole 5,5-dioxide]"
13,285,"O=C(c1nn(-c2ccc(CN3CCCC3)cc2)c2c1CS(=O)(=O)c1ccccc1-2)N1CCOCC1 [Example 228, 3-(Morpholin-4-ylcarbonyl)-1-[4-(pyrrolidin-1-ylmethyl)phenyl]-1,4-dihydrothiochromeno[4,3-c]pyrazole 5,5-dioxide]"
